Consider 2 compounds from publication PMC5341070, “Small molecule inhibitors block Gas6-inducible TAM activation and tumorigenicity” (Scientific Reports, 2017).

One assay addresses TIE2 (Homo sapiens, UniProt Q02763). Briefly: biochemical. Further details: gene TEK; KINOMEscan (DiscoverX) competition binding screen of 97 human kinases, percent of control at 10 uM. The method, then:
(§1) The KINOMEscan profiling of the inhibitors were performed as per directions by the manufacturer (DiscoverX) against a panel of human protein kinases.

A further assay deals with PDPK1 (Homo sapiens, UniProt O15530). Briefly: biochemical. Further details: KINOMEscan (DiscoverX) competition binding screen of 97 human kinases, percent of control at 10 uM. The procedure: as §1
In the next assay the target is RET (Homo sapiens, UniProt P07949). The experiment in a line: biochemical. Further details: KINOMEscan (DiscoverX) competition binding screen of 97 human kinases, percent of control at 10 uM. The procedure: as §1
A further assay deals with RIOK2 (Homo sapiens, UniProt Q9BVS4). The experiment in a line: biochemical. Further details: KINOMEscan (DiscoverX) competition binding screen of 97 human kinases, percent of control at 10 uM. The procedure:
as §1

The target of the next assay is T1, ADCK3 (Homo sapiens, UniProt Q8NI60).
T1 construct: gene COQ8A
T1 sequence (Q8NI60 whole entry): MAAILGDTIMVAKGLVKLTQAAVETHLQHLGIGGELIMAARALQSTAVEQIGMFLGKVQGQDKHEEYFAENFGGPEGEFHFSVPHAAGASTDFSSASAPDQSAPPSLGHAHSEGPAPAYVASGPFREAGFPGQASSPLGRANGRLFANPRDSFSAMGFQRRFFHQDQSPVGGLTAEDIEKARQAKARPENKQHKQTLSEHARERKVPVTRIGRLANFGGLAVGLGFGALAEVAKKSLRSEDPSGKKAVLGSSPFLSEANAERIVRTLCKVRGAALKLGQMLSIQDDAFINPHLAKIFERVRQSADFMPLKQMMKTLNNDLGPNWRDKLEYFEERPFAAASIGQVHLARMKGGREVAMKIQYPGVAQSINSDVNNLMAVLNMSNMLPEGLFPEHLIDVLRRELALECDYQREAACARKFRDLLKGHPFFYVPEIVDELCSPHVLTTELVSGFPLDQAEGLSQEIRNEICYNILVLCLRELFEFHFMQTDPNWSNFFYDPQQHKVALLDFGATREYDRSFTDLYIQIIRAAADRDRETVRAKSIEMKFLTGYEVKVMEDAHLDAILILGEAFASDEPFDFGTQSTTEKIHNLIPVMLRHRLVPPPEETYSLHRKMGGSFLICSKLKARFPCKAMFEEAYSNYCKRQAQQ
The experiment in a line: biochemical. Further details: KINOMEscan (DiscoverX) competition binding screen of 97 human kinases, percent of control at 10 uM. The method, then:
as §1

For a further assay, the target named is CSNK1D (Homo sapiens, UniProt P48730). The experiment in a line: biochemical. Further details: KINOMEscan (DiscoverX) competition binding screen of 97 human kinases, percent of control at 10 uM. The procedure:
as §1

In another assay the target is CSF1R (Homo sapiens, UniProt P07333). The experiment in a line: biochemical. Further details: KINOMEscan (DiscoverX) competition binding screen of 97 human kinases, percent of control at 10 uM. The procedure:
as §1

Another assay has as its target PLK3 (Homo sapiens, UniProt Q9H4B4). The experiment in a line: biochemical. Further details: KINOMEscan (DiscoverX) competition binding screen of 97 human kinases, percent of control at 10 uM. The procedure:
as §1

The next assay has as its target T2, p38-beta (Homo sapiens, UniProt Q15759).
T2 construct: gene MAPK11
Briefly: biochemical. Further details: KINOMEscan (DiscoverX) competition binding screen of 97 human kinases, percent of control at 10 uM. The procedure: as §1

The target in another assay is T3, CDK11 (Homo sapiens, UniProt Q9BWU1).
T3 construct: gene CDK19
The experiment in a line: biochemical. Further details: KINOMEscan (DiscoverX) competition binding screen of 97 human kinases, percent of control at 10 uM. The method, then:
as §1

Another assay has as its target EGFR (Homo sapiens, UniProt P00533). Briefly: biochemical. Further details: KINOMEscan (DiscoverX) competition binding screen of 97 human kinases, percent of control at 10 uM. The procedure: as §1
Assay [1] has as its target T4, ABL1(E255K)-phosphorylated (Homo sapiens, UniProt P00519, E255K).
T4 construct: phosphorylated
The experiment in a line: biochemical. Further details: KINOMEscan (DiscoverX) competition binding screen of 97 human kinases, percent of control at 10 uM. The method, then: as §1

A further assay addresses T5, TRKA (Homo sapiens, UniProt P04629).
T5 construct: gene NTRK1
The experiment in a line: biochemical. Further details: KINOMEscan (DiscoverX) competition binding screen of 97 human kinases, percent of control at 10 uM. The procedure: as §1

Another assay deals with CDK2 (Homo sapiens, UniProt P24941). Briefly: biochemical. Further details: KINOMEscan (DiscoverX) competition binding screen of 97 human kinases, percent of control at 10 uM. The method, then:
as §1

Another assay deals with INSR (Homo sapiens, UniProt P06213). The experiment in a line: biochemical. Further details: KINOMEscan (DiscoverX) competition binding screen of 97 human kinases, percent of control at 10 uM. The procedure: as §1
The target in another assay is AKT1 (Homo sapiens, UniProt P31749). Briefly: biochemical. Further details: KINOMEscan (DiscoverX) competition binding screen of 97 human kinases, percent of control at 10 uM. The method, then: as §1
AKT1, sequence (P31749 whole entry): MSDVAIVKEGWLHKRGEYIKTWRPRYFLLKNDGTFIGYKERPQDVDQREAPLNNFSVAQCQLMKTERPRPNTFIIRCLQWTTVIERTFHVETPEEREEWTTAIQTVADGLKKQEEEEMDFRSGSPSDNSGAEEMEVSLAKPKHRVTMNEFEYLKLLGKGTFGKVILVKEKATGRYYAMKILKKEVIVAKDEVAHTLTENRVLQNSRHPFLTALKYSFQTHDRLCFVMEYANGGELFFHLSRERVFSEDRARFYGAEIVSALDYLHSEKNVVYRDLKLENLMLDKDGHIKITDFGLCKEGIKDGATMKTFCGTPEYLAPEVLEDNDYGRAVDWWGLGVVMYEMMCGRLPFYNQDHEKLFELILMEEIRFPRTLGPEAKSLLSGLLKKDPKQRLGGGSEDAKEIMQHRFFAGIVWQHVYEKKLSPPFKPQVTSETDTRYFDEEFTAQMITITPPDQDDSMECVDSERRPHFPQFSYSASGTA
For the next assay, the target named is ERBB2 (Homo sapiens, UniProt P04626). The experiment in a line: biochemical. Further details: KINOMEscan (DiscoverX) competition binding screen of 97 human kinases, percent of control at 10 uM. The procedure:
as §1

A further assay has as its target ULK2 (Homo sapiens, UniProt Q8IYT8). The experiment in a line: biochemical. Further details: KINOMEscan (DiscoverX) competition binding screen of 97 human kinases, percent of control at 10 uM. The method, then:
as §1

The target in assay [2] is T6, TYK2(JH1domain-catalytic) (Homo sapiens, UniProt P29597).
T6 construct: JH1domain-catalytic
The experiment in a line: biochemical. Further details: KINOMEscan (DiscoverX) competition binding screen of 97 human kinases, percent of control at 10 uM. The procedure: as §1

In the next assay the target is T7, MLK1 (Homo sapiens, UniProt P80192).
T7 construct: gene MAP3K9
The experiment in a line: biochemical. Further details: KINOMEscan (DiscoverX) competition binding screen of 97 human kinases, percent of control at 10 uM. The method, then: as §1

The target in another assay is SRPK3 (Homo sapiens, UniProt Q9UPE1). The experiment in a line: biochemical. Further details: KINOMEscan (DiscoverX) competition binding screen of 97 human kinases, percent of control at 10 uM. The procedure:
as §1

A further assay has as its target FGFR2 (Homo sapiens, UniProt P21802). The experiment in a line: biochemical. Further details: KINOMEscan (DiscoverX) competition binding screen of 97 human kinases, percent of control at 10 uM. The method, then:
as §1

The target of the next assay is T8, p38-alpha (Homo sapiens, UniProt Q16539).
T8 construct: gene MAPK14
T8 sequence (Q16539 whole entry): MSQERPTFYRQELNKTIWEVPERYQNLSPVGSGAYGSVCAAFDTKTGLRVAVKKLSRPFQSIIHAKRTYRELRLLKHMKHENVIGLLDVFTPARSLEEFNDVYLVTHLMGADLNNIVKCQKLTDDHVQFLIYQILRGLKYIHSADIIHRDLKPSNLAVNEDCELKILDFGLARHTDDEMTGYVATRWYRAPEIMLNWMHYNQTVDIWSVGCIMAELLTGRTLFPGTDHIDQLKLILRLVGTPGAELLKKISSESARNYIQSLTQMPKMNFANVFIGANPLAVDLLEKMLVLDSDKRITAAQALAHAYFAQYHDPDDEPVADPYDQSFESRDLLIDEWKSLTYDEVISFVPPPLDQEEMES
The experiment in a line: biochemical. Further details: KINOMEscan (DiscoverX) competition binding screen of 97 human kinases, percent of control at 10 uM. The procedure: as §1

In another assay the target is T9, Axl (Homo sapiens, UniProt P30530+Q14393).
T9 construct: extracellular and trans-membrane domain of Axl fused to IFN-γR1 intracellular domain; with Gas6
Briefly: Gas6-induced hAxl/IFN-γR1 CHO reporter (pSTAT1) inhibition; sAxl-Gas6 pull-down partially inhibited. In kind it is cell-based.

[3] abbreviates: read-out: R428 %Ctrl @ 10000nM, binding competition.
Where [4] appears, read: binding competition, % of control, read-out: RU-301 %Ctrl @ 10000nM.

ULK2, sequence (Q8IYT8 whole entry): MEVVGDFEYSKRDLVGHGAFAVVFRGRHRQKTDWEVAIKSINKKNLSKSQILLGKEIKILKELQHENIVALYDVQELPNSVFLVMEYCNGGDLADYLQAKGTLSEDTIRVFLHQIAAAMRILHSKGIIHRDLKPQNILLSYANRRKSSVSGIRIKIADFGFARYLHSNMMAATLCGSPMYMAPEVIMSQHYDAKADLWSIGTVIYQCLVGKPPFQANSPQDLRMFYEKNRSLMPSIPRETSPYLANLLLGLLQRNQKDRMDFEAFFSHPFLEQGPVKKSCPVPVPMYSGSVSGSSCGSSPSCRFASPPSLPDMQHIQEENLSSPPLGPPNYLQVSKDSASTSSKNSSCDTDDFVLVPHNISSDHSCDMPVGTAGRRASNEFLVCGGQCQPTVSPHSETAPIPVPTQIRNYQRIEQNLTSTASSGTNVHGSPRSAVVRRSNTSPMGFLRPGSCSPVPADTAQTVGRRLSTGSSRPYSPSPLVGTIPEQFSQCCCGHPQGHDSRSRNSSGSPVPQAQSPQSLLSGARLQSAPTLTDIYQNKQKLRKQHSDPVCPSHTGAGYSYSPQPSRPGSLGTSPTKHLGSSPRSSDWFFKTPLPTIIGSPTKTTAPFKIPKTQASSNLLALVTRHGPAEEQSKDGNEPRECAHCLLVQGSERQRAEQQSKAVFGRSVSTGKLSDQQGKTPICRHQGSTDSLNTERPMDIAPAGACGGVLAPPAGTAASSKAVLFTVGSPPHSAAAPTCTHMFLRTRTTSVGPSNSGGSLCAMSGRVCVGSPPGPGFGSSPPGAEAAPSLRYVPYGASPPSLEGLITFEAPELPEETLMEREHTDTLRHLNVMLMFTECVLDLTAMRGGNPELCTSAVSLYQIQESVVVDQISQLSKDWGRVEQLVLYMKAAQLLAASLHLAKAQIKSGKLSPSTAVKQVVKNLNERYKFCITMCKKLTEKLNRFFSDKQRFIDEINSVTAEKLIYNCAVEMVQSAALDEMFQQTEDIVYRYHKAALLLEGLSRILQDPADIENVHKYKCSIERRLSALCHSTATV
ERBB2, sequence (P04626 whole entry): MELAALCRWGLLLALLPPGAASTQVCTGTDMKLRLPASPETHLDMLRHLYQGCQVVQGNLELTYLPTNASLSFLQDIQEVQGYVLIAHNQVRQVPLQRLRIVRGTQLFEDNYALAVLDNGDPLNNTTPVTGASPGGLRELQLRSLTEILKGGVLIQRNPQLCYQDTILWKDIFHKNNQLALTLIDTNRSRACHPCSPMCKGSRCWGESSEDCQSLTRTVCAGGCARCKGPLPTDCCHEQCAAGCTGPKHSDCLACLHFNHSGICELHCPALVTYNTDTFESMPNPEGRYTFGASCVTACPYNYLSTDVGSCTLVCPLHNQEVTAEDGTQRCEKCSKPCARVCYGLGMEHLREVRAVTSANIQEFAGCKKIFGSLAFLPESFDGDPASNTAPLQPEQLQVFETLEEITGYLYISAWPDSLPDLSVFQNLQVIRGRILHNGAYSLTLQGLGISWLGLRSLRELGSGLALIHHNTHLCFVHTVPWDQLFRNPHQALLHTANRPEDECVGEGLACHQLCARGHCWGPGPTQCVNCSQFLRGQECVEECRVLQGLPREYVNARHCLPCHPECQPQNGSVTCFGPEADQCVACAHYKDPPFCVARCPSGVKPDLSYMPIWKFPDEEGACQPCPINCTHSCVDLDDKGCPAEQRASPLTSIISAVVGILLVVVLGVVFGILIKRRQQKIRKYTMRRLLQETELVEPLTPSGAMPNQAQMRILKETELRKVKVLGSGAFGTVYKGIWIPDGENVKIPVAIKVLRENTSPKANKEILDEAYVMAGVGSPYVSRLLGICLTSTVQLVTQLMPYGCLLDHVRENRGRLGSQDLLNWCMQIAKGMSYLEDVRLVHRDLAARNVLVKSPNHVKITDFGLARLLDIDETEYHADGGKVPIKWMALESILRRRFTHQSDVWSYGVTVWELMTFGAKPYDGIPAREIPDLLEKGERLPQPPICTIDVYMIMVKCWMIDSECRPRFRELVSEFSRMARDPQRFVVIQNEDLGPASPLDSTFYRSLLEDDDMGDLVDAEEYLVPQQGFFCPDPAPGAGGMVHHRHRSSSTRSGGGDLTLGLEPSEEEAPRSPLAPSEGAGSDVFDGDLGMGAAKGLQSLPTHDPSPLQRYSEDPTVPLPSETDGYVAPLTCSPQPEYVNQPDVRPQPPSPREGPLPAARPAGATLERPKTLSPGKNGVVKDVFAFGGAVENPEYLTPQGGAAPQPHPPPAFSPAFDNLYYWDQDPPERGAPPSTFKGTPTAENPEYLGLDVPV
FGFR2, sequence (P21802 whole entry): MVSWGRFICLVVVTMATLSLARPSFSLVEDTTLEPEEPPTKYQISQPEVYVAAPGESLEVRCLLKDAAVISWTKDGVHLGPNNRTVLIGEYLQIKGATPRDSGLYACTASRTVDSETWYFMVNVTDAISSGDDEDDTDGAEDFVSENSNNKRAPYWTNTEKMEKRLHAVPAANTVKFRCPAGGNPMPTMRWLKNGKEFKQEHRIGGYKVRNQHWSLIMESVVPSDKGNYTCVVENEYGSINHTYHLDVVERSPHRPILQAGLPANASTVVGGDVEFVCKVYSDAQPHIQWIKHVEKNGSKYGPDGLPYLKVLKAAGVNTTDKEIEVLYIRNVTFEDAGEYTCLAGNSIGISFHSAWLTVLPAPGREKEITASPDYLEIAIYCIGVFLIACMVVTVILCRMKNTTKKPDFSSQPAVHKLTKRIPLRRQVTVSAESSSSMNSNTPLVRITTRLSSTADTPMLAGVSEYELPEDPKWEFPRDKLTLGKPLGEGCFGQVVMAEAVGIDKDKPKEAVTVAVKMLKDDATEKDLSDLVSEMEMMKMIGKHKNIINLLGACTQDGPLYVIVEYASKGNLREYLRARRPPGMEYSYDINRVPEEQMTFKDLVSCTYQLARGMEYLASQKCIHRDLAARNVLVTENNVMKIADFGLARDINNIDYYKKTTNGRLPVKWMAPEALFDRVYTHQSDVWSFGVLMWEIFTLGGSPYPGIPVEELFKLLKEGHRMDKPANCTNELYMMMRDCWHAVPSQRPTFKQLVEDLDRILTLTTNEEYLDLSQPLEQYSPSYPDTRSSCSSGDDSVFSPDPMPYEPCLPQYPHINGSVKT
CSNK1D, sequence (P48730 whole entry): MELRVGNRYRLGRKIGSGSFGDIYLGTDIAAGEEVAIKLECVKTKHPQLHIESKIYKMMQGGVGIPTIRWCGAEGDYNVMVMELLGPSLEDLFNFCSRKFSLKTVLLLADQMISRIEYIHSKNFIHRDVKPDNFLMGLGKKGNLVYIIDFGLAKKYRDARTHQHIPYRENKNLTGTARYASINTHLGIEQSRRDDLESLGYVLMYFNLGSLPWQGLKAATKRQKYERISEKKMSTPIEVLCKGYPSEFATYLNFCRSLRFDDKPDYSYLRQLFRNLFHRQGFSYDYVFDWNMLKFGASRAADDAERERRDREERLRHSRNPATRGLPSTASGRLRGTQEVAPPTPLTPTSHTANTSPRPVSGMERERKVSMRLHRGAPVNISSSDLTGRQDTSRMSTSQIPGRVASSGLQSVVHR

As to `Nc1nc(Nc2ccc3c(c2)CC[C@@H](N2CCCC2)CC3)nn1-c1cc2c(nn1)-c1ccccc1CCC2` [R428], the percent of control binding at 10 µM was found to be 0.45% at TIE2 (setting [3]); 34% on PDPK1 (setting [3]); 0% on RET (setting [3]); 94% at RIOK2 (setting [3]); 18% at ADCK3 (setting [3]); 98% at CSNK1D (setting [3]). Moreover, the percent of control binding at 10 µM is 0.35% at CSF1R (setting [3]); 29% on PLK3 (setting [3]); 84% on p38-beta (setting [3]); 98% at CDK11 (setting [3]); 74% on EGFR (setting [3]); 0.25% in assay [1] (setting [3]). Further, the percent of control binding at 10 µM on TRKA (setting [3]) worked out at 3.9%; on CDK2 (setting [3]), 71%; at INSR (setting [3]), 14%; on AKT1 (setting [3]), 100%; on ERBB2 (setting [3]), 46%; on ULK2 (setting [3]), 1.6%. Also, the percent of control binding at 10 µM was 17% in assay [2] (setting [3]); 2.2% on MLK1 (setting [3]); 3.8% at SRPK3 (setting [3]); 30% on FGFR2 (setting [3]); 78% on p38-alpha (setting [3]).
As for `Cc1cc(CSc2ccccc2C(=O)NCCNc2ccc(C(F)(F)F)cc2[N+](=O)[O-])on1` [RU-301], the remaining binding at 10 µM was 100% on TIE2 (setting [4]); 99% at PDPK1 (setting [4]); 97% on RET (setting [4]); 100% at RIOK2 (setting [4]); 76% at ADCK3 (setting [4]); 94% on CSNK1D (setting [4]). Also, the remaining binding at 10 µM is 90% at CSF1R (setting [4]); 91% at PLK3 (setting [4]); 100% on p38-beta (setting [4]); 94% on CDK11 (setting [4]); 100% on EGFR (setting [4]); 94% in assay [1] (setting [4]). Also, the remaining binding at 10 µM at TRKA (setting [4]) worked out at 100%; on CDK2 (setting [4]) it was 100%; on INSR (setting [4]), 89%; at AKT1 (setting [4]), 88%; at ERBB2 (setting [4]), 94%; at ULK2 (setting [4]), 97%. Besides, the remaining binding at 10 µM in assay [2] (setting [4]) came to 55%; on MLK1 (setting [4]), 100%; on SRPK3 (setting [4]) it was 80%; on FGFR2 (setting [4]), 100%; on p38-alpha (setting [4]), 93%. The IC50 result at Axl is “low micromolar”.
